The target of this assay is T1, TBK1 (Homo sapiens, UniProt Q9UHD2).
T1 construct: All protein kinases were of human origin and encoded full length proteins, unless indicated otherwise; His6; made in house; host or cells: insect Sf21 cells
T1 sequence (Q9UHD2 1-729): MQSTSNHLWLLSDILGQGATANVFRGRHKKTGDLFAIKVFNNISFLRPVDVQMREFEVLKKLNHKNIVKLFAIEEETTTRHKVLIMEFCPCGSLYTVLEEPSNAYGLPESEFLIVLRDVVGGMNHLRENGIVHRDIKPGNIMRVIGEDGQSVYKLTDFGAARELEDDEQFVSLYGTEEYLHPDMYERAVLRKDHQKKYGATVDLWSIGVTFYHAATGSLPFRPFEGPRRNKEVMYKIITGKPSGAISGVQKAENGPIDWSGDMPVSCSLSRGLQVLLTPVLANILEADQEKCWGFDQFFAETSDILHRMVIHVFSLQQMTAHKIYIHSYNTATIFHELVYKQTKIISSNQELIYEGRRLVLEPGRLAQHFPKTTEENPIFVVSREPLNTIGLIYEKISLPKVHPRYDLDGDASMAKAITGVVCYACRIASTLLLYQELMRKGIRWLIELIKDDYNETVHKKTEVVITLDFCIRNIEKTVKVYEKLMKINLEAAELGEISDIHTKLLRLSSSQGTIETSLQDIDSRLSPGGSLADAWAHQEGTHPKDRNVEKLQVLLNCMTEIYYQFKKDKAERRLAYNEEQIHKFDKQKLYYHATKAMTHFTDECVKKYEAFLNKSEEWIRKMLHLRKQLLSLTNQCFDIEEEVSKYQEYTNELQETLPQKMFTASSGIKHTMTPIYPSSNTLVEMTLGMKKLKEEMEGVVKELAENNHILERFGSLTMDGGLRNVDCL
The experiment in a line: TBK1 protein kinase assay ([γ-33P]ATP, P81 filterplates). It counts as biochemical. As to conditions: 50 μM ATP; read-out: Potency (TBK1 IC50 potency score). The procedure, abridged:
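Human TBK1 assayed for 30 min with peptide substrate (300 μM), 50 μM [γ-33P]ATP and 10 mM magnesium acetate in 50 mM Tris/HCl pH 7.5, 0.1 mM EGTA, 0.1% 2-mercaptoethanol. Stopped with orthophosphoric acid and counted on P81 filters. IC50 from 10 compound concentrations.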

Structures are written as SMILES. Where a name gives a salt, the structure may show the parent alone.

As for `O=C(NCCCNc1nc(Nc2cnn(C3CCC3)c2)ncc1C1CC1)C1CCC1` [Example 202, Cyclobutanecarboxylic acid {3-[2-(1-cyclobutyl-1H-pyrazol-4-ylamino)-5-cyclopropyl-pyrimidin-4-ylamino]-propyl}-amide], the IC50 is less than 100 nM.
With `Cn1cccc1C(=O)NCCCNc1nc(Nc2cccc(F)c2)ncc1C1CC1` [Example 16, 1-Methyl-1H-pyrrole-2-carboxylic acid {3-[5-cyclopropyl-2-(3-fluoro-phenylamino)-pyrimidin-4-ylamino]-propyl}-amide], the IC50 was in the range of 100 to 1000 nM.
As to `O=C(O)c1cccc(Nc2ncc(C3CC3)c(NCCCNC(=O)C3CCC3)n2)c1` [Example 71, 3-{4-[3-(Cyclobutanecarbonyl-amino)-propylamino]-5-cyclopropyl-pyrimidin-2-ylamino}-benzoic acid hydrochloride salt], the IC50 was less than 100 nM.
The same measure for `CN1CCN(C(=O)c2ccc(Nc3ncc(C4CC4)c(NCCCNC(=O)C4CCC4)n3)cc2)CC1` [Example 175, Cyclobutanecarboxylic acid (3-{5-cyclopropyl-2-[4-(4-methyl-piperazine-1-carbonyl)-phenylamino]-pyrimidin-4-ylamino}-propyl)-amide]: less than 100 nM; for `O=C(NCCCNc1nc(Nc2cccc(Cn3ccnc3)c2)ncc1C1CC1)C1CCC1` [Example 42, Cyclobutanecarboxylic acid {3-[5-cyclopropyl-2-(3-imidazol-1-ylmethyl-phenylamino)-pyrimidin-4-ylamino]-propyl}-amide]: less than 100 nM; for `CN1CCC(CNC(=O)c2cccc(Nc3ncc(C4CC4)c(NCCCNC(=O)C4CCC4)n3)c2)CC1` [Example 78, 3-{4-[3-(Cyclobutanecarbonyl-amino)-propylamino]-5-cyclopropyl-pyrimidin-2-ylamino}-N-(1-methyl-piperidin-4-ylmethyl)-benzamide]: less than 100 nM.

Broadly, the IC50 is the concentration that gives 50% inhibition.
